Series [1] has as its target T1, human brain hexokinase (Homo sapiens, UniProt P19367).
T1 sequence (P19367 1-917): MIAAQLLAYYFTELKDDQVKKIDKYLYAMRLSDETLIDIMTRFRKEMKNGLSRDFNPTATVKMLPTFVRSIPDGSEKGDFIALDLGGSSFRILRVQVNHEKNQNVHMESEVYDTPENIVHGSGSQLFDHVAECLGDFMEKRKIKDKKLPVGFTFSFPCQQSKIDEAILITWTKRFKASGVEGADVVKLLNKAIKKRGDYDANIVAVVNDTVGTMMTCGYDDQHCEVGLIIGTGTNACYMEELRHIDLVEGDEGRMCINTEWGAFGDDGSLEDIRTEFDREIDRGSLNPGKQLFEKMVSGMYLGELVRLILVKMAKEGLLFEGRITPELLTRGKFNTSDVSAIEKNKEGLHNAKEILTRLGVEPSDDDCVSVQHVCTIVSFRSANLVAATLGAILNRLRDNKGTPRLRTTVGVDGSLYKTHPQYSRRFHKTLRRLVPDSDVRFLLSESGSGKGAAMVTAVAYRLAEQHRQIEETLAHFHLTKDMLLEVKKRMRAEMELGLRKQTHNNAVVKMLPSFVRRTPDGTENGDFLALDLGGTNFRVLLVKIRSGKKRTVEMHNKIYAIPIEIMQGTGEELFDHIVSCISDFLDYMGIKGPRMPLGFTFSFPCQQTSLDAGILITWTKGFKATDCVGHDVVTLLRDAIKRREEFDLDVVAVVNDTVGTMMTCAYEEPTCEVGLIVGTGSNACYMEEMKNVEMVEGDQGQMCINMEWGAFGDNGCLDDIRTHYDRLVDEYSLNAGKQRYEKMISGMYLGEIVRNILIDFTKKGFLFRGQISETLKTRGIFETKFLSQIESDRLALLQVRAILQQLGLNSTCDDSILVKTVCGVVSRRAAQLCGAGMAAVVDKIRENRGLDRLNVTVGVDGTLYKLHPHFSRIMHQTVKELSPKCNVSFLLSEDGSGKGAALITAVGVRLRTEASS
As to conditions: read-out: Km for glucose utilization by brain hexokinase, Michaelis constant; cited from earlier work.

In another series the test system is Rat Brain Hexokinase. The experiment in a line: Competitive inhibition of rat brain hexokinase. To be noted: J. Neurochemistry 37: 1000 (1981). Type of series: biochemical. From the text:
Rather than relying on indirect manipulative steps to avoid contrast agent diffusion to brain, there is a need for an inexpensive, reliable, direct mechanism to avoid central nervous system complications induced by the iodo-benzamido-glucopyranose x-ray contrast agents. Following intense pharmacological research into the biochemical activity of the contrast agents, typified by metrizamide, Applicant has discovered that such compounds interfere with glycolysis metabolism in the brain. […] This interference with the utilization of glucose, which normally serves as the obligatory energy source in the brain, may explain some of the depressive effects of intrathecally administered metrizamide and related compounds.

Another series deals with patients. As to conditions: cerebrospinal myelography patients; cited from earlier work.
For series [2] the following is noted: reconstituted according to certain directions, at body temperature; cited from earlier work.
In series [3] the target is T1, human brain hexokinase. The experiment in a line: Inhibition constant for human brain hexokinase. The class given is biochemical. Set-up: from tissue; host or cells: human brain. To be noted: with respect to human brain hexokinase; competitive with glucose. From the text: (§1) The appropriate amount of glucose to be combined with or to be coadministered with a selected iodo-benzamido-glucopyranose contrast agent can be determined by knowing the hexokinase inhibition constant (Ki) for a selected contrast agent. The ratio of the activity of an enzyme to its maximal activity (Vmax) in the presence of competitive inhibitors is given by the following formula: v/Vmax=[S]/([S]+Km(1+([I]/Ki)), where [S] is glucose concentration, [I] is inhibitor concentration, Km is the Michaelis constant for glucose utilization of hexokinase, and Ki is the inhibition constant for the contrast agent. With no inhibitor present, glucose utilization by human brain hexokinase is represented by a v/Vmax of 0.99 (the Km for glucose utilization by brain hexokinase is 0.05 mM, and typical spinal fluid contains 4 mM glucose).
In a routine myelographic procedure, 780 mM (300 mg I/ml) metrizamide is administered. Substituting this variable into the above Michaelis-Menten equation, one finds a v/Vmax of only 0.25. This value represents a significant reduction in glucose utilization. Even if the concentration of metrizamide were diluted tenfold by the time it reached the cerebral surfaces, a v/Vmax of only 0.77 is predicted. Reductions in glucose utilization ranging from 0.6 to 0.7 have been associated with varieties of stupor and coma in humans.

Series [4] concerns the target T1, human brain hexokinase. The experiment in a line: Calculated glucose utilization by brain hexokinase (v/Vmax, Michaelis-Menten equation with competitive inhibitor). Further details: from tissue; host or cells: human brain.
Text: as §1
In a routine myelographic procedure, 780 mM (300 mg I/ml) metrizamide is administered. Substituting this variable into the above Michaelis-Menten equation, one finds a v/Vmax of only 0.25. […]
However because metrizamide is a relatively weak competitive inhibitor of glucose, a small increase in glucose concentration can restore hexokinase-glucose utilization to an effective level. […] By solving for [S] it is calculated that an initial concentration of about 100 mM glucose is needed to counteract the effects of an intrathecal injection of 780 mM metrizamide. […]

We go through two molecules from patent publication US4455292A, “Radiological contrast composition and methods” (Board of Regents, the University of Texas System, priority 1982, dated 1984).

For the molecule `OC[C@H]1OC(O)[C@H](O)[C@@H](O)[C@@H]1O` (stereo partly shown) [glucose], the Km at human brain hexokinase [1] was 50 µM.

With `CC(=O)Nc1c(I)c(C(=O)N[C@H]2C(O)O[C@H](CO)[C@@H](O)[C@@H]2O)c(I)c(N(C)C(C)=O)c1I` (stereo partly drawn) [metrizamide, 2-[3-Acetamido-2,4,6-triiodo-5-(N-methylacetamido)benzamido]-2-deoxy-D-glucopyranose], the “mode of hexokinase inhibition” value in the series with Rat Brain Hexokinase is given as “competes with glucose to inhibit hexokinase activity”. Also, the “fraction of patients treated with temporary confusional state and EEG deterioration” value in the series on patients is given as “about one-third”. Also, the specific gravity in series [2] was 1.184. Besides, the affinity at human brain hexokinase [3], expressed as Ki, was 2500 µM. For the same molecule, the “v/Vmax (glucose utilization)” value on human brain hexokinase [4] (780 mM (300 mg I/ml) metrizamide, routine myelographic procedure, typical spinal fluid 4 mM glucose) was 0.25; on human brain hexokinase [4] (metrizamide concentration diluted tenfold by the time it reaches the cerebral surfaces), 0.77.

What is called Km is the substrate concentration at which the rate is half of its maximum. The Ki is a measure of affinity in units of concentration, obtained from inhibition or displacement. A low value points to a stronger hold on the target.
